PubChem BioAssay (NCI)
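Where inhibition never reached the appropriate level, the endpoint shown equals the highest concentration tested. Otherwise, values were interpolated linearly from a five-concentration, 48-hour dose response in 96-well plates. Here, GI50 denotes the concentration required for 50% inhibition of growth. TGI: total growth inhibition.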

Tests used:
Experiment in all cases: inhibition of tumour cell growth, NCI panel, 48 h
TK-10 renal = system: TK-10 renal
MALME-3M melanoma = system: MALME-3M melanoma
UACC-257 melanoma = system: UACC-257 melanoma
NCI-H23 lung = system: NCI-H23 lung
HOP-62 NSCLC = system: HOP-62 NSCLC
HOP-92 NSCLC = system: HOP-92 NSCLC
SW-620 colon = system: SW-620 colon
786-0 renal = system: 786-0 renal
OVCAR-5 ovarian = system: OVCAR-5 ovarian
DU-145 prostate = system: DU-145 prostate

SMILES | GI50 (TK-10 renal) | TGI (TK-10 renal) | GI50 (MALME-3M melanoma) | TGI (MALME-3M melanoma) | GI50 (UACC-257 melanoma) | TGI (UACC-257 melanoma) | GI50 (NCI-H23 lung) | TGI (NCI-H23 lung) | GI50 (HOP-62 NSCLC) | TGI (HOP-62 NSCLC) | GI50 (HOP-92 NSCLC) | TGI (HOP-92 NSCLC) | GI50 (SW-620 colon) | TGI (SW-620 colon) | GI50 (786-0 renal) | TGI (786-0 renal) | GI50 (OVCAR-5 ovarian) | TGI (OVCAR-5 ovarian) | GI50 (DU-145 prostate) | TGI (DU-145 prostate)
COc1cc(/C=C/C(=O)NC[C@]2(O)CCC3C4CCc5cc(O)ccc5C4CCC32C)ccc1O (stereo partly specified) | 2.76 µM | 14.4 µM | 3.5 µM | 42.3 µM | 39.5 µM | > 100 µM | 5.63 µM | 34 µM | 26.7 µM | > 100 µM | 21.8 µM | > 100 µM | 34.1 µM | > 100 µM | 11.3 µM | 45.7 µM | 56.9 µM | > 100 µM | 23.9 µM | > 100 µM
COc1ccc2c(c1)C(=O)c1c-2c(OCCN(C)C)nc2cc(OC)ccc12 | 3.14 µM | 13.7 µM |  |  | 3.19 µM | 9.96 µM | 1.36 µM | 3.5 µM | 2.02 µM | 8.04 µM | 1.65 µM | 7.02 µM | 0.446 µM | 1.73 µM | 1.46 µM | 2.84 µM | 1.9 µM | 4.65 µM | 1.64 µM | 8.03 µM
CCN1/C(=C/C=C/C=C/c2sc3ccccc3[n+]2CC)Sc2ccccc21 | 0.472 µM | 3.97 µM |  |  | 0.475 µM | 2.94 µM | 0.164 µM | 2.33 µM | 0.42 µM | 1.54 µM | 0.32 µM | 3.27 µM | 0.379 µM | 1.84 µM | 0.516 µM | 1.71 µM | 0.639 µM | 6.05 µM | 0.394 µM | 1.73 µM
